Target: T1, dihydrofolate reductase (DHFR) (Escherichia coli, UniProt P0ABQ4, C152S/C85A)
T1 construct: gene folA
T1 sequence (P0ABQ4 1-159 C85A/C152S): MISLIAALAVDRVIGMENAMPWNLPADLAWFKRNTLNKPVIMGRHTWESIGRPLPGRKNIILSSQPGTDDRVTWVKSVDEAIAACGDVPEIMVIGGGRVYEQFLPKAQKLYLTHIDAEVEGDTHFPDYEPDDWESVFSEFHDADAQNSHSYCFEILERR
Assay: spectrophotometric DHFR activity assay ([…] nm) with in-house purified E. coli DHFR, triplicates
Format: biochemical

COc1cc(Cc2cnc(N)nc2N)cc(OC)c1OCc1cc(Cl)c(/N=N\c2c(Cl)cccc2Cl)c(Cl)c1 [TCATa]
IC50: 3.3 ± 2.1 nM

COc1cc(Cc2cnc(N)nc2N)cc(OC)c1OCc1cc(Cl)c(/N=N/c2c(Cl)cccc2Cl)c(Cl)c1 [TCATd]
IC50: 3.8 ± 1.4 nM

Source: paper PMC8143356, “Mechanism of Resistance Development in E. coli against TCAT, a Trimethoprim-Based Photoswitchable Antibiotic” (Pharmaceuticals, 2021)
